Reference: patent US11358931B2, “Selective androgen receptor modulators (SARMs) and uses thereof” (priority 2007, dated 2022)
Entries after “also recorded” stand apart in the source; their conditions may differ.

Tests used:
[1] = test system: human skeletal α-actin promoter activity; experiment: Skeletal α-actin promoter assay (C2C12 cells transfected with human AR); format: cell-based; details: for EC50: C2C12, read-out: EC50, activation of skeletal α-actin promoter; for efficacy, % of DHT: C2C12 mouse muscle cells
Description: An exemplary assay for measuring AR-mediated gene expression in mouse muscle cells is the human skeletal α-actin assay. A mouse muscle cell line (C2C12, obtained from American Type Cell Culture (ATCC, Rockville, Md.)) can be used in the luciferase reporter assay. An SK α-actin-LUC reporter plasmid is constructed by inserting the skeletal α-actin promoter sequence into a luciferase reporter vector (e.g., by cloning the human skeletal α-actin promoter region from −77 to +202 bp from human liver genomic DNA (Clontech, Palo Alti, Calif.) and inserting the sequence into a pGL3-Basic reporter plasmid (Promega, Madison, Wis.)). The C2C12 cell line can be transiently transfected with a human AR expression plasmid and a luciferase reporter plasmid containing the skeletal α-actin promoter upstream of the luciferase cDNA. The compounds to be tested are added to the cells after transfection and after 24 hours of incubation, the cells are lysed with a detergent-containing buffer and assayed for luciferase activity.
Compound 102 was tested to determine its ability to activate human skeletal α-actin using the skeletal α-actin promoter assay. A mouse muscle cell line (C2C12) was transiently transfected with a human AR expression plasmid and a luciferase reporter plasmid containing the skeletal α-actin promoter upstream of the luciferase cDNA. C2C12 cells (at a concentration of 5×10^5) were seeded in a T25 flask and cultured for 24 hours. The cells were harvested by using trypsin and seeded at 6000 cells/well in 96-well plates. The same day, a non-liposomal formulation, FuGENE 6 reagent (Roche, Indianapolis, Ind.) was used for transfection of the cells. To each well was added 45.5 ng of the skeletal α-actin-LUC reporter plasmid, 4.55 ng pRShAR and 5 ng pRS-BG as carrier DNA. Twenty-four hours after transfection, different concentrations of the solvated compound (10^−10 to 10^−6 M) were added in triplicate to the cells and the cells were incubated for 24 hours. The medium was aspirated and the cells were lysed with a detergent-containing buffer. After addition of Luciferase Assay Buffer to each well, the cells were assayed for luciferase activity using a luminometer to determine the level of transcriptional activation.

[2] = test system: ovariectomized mature female rat; experiment: In vivo assay, ovariectomized mature female rats (12 weeks); details: for uterine weight to length ratio versus OVX controls: 0.03-3 mg/kg/day PO; for uterine weight to length ratio versus sham levels: high dose (3 mg/kg); for increase of gastrocnemius muscle mass / mean change in body weight: maximally effective dose 0.3 mg/kg PO; for clitoral weight, activity versus testosterone / clitoral gland weight versus sham: mid dose (0.3 mg/kg); for clitoral gland weight versus sham: 0.3 mg/kg
Description: In animal models of osteoporosis, androgens increase bone density and strength in male rats (Wakely et al., J Bone & Mineral Research 6: 325-330 (1991) and Vandenput et al., Calcified Tissue International 70: 170-175 (2002)) and female rats (Tobias et al., Am J Physiology 267: E853-E859 (1994) and Coxam et al., Bone 19: 107-114 (1996)). The ovariectomized mature female rat model was used to assess the effects of orally administered compounds provided herein, such as Compound 102, on bone as well as other efficacy and side-effect endpoints including muscle mass, fat mass and clitoral gland weight.
In this assay, approximately three-month old rats were acclimated in a vivarium for one week. After acclimation, rats were anesthetized with Avertin and the ovariectomy (OVX) was performed using the dorsal approach. For the sham procedure, the surgical procedure was conducted per protocol, and the ovaries exteriorized but not removed. After recovery, no further experimental manipulations were performed for seven weeks, at which point the rats were scanned by dual energy x-ray absorptiometry and sorted into experimental groups based upon femoral bone mineral content (BMC). Three dosages of Compound 102 were tested (0.03, 0.3 and 3 mg/kg/day PO). For comparison, ostarine, a known non-steroidal SARM, was tested at the same dosages (0.03, 0.3 and 3 mg/kg/day PO). In addition, reference compounds estradiol and testosterone were administered. Estradiol was administered subcutaneously to one ovariectomized group at a dose of 0.1 mg/kg/day and testosterone propionate was administered subcutaneously to another ovariectomized group at a dose of 1 mg/kg/day.
Treatment continued once daily for 12 weeks, at which point animals were euthanized and tissues were collected for further analysis. Animals received subcutaneous injections of fluorochrome markers for bone histomorphometric analysis. Alizarian Red S was prepared as a 3% solution and given at a dose of 30 mg/kg at the time of the baseline scan. Calcein was administered 10 days and 3 days prior to necropsy.
After the 14th dose, approximately 250 μL venous blood was collected via percutaneous jugular puncture from the rats at 0, 0.5, 1, 2, 4 and 6 hours post-dosing. The blood samples were collected into lithium-heparin tubes (Becton Dickinson, Franklin Lakes, N.J.). Plasma fractions were collected for pharmacokinetic analysis. Approximately 24 hours after the last dose, rats were sacrificed by cardiac exsanguination, and blood was collected into serum separator tubes (Becton Dickinson), and the gastrocnemius muscle, plantaris muscle, uterus, clitoral glands, clitoris and inguinal fat pads were isolated, blotted and weighed individually. Uterine weight measurements can be inaccurate in surgically ovariectomized rats due to the potential loss of uterine tissue at the tips of the uterine horns during removal of the ovaries. To minimize this variability, the length of the uterine horns was measured and the uterine weight was reported normalized to uterine length. The left femur and lumbar vertebra L5 were wrapped in saline-soaked gauze and stored at −20° C. for biochemical analysis. The right femur and lumbar vertebrae L3-L4 were collected and stored in 70% ethanol for histomorphometry. The right tibia was collected in formalin for histological analysis. The left tibia was collected on dry ice and stored at −20° C. for measurement of alkaline phosphatase activity.
Compound 102 and ostarine individually were formulated in a solution containing 5% Tween-80 polysorbate, 90% PEG-400 polyethylene glycol, and 5% polyvinylpyrrolidone K30. The mixture was stirred and sonicated in a water bath for 30 minutes until the compound dissolved into a solution. After sonication, 1% carboxymethyl cellulose (CMC) in water was added to the solution in a 9:1 ratio (9 parts CMC/water solution to 1 part PEG-400/Tween-80/PVP). Compound 102 and ostarine were administered orally in a volume of 4 mL/kg. […]

[3] = OVX rats, 12 weeks, 3-point bending
[4] = OVX rats, high dose (3 mg/kg/day PO)
[5] = OVX rats, low dose (0.03 mg/kg/day PO)

Compound | EC50 [1] [nM] | efficacy, % of DHT [1] [%] | uterine weight to length ratio versus OVX controls [2] | uterine weight to length ratio versus sham levels ([2]; OVX rats) | clitoral gland weight [2, 4] | clitoral weight [2, 4] | clitoral gland weight [2, 5] | clitoral weight [2, 5] | uterine weight to length ratio versus sham operated controls [2, 5] | increase of gastrocnemius muscle mass ([2]; OVX rats) [%] | mean change in body weight ([2]; OVX rats) | clitoral weight, activity versus testosterone ([2]; OVX rats) | clitoral gland weight versus sham ([2]; OVX rats) | further results
O=[N+]([O-])c1ccc(N2CCC[C@@H]2[C@H](O)C(F)(F)F)cc1C(F)(F)F [LG0893411, S, R-2,2,2-trifluoro-1-[1-(4-nitro-3-trifluoromethyl-phenyl)-pyrrolidin-2-yl]-ethanol] | 85.6 | 59 | – | – | – | – | – | – | – | – | – | – | – | –
C[C@](O)(COc1ccc(C#N)cc1)C(=O)Nc1ccc(C#N)c(C(F)(F)F)c1 [ostarine] | – | – | increased uterine weight to length ratio above estrogen deficient OVX controls in a dose dependent manner | significantly (P<0.01) increased above sham levels | increased clitoral gland weight | significantly increased clitoral weight | Neither Compound 102 nor ostarine affected | did not affect clitoral weight | significantly (P<0.01) less than sham operated controls | 10 | +65 grams | not significantly different from testosterone | only slightly above the sham level; also recorded: statistically significant (P<0.05) | alkaline phosphatase activity from isolated tibiae ([2]; OVX rats, 12 weeks): significantly increased; whole femur bending stiffness [2, 3]: slightly more effectively than Compound 102; whole femur bending strength [2, 3]: slightly less effectively than Compound 102; cortical bone area ([2]; OVX rats, 12 weeks, histomorphometry): increased cortical bone area; serum osteocalcin ([2]; OVX rats, 12 weeks, versus vehicle-treated OVX controls): significantly suppressed; body weight gain from baseline compared to vehicle ([2]; OVX rats, 12 weeks, Compound 102/ostarine 0.03, 0.3, 3 mg/kg/day PO, testosterone propionate 1 mg/kg/day s.c.): significantly increased weight gain compared to vehicle at the mid and high dose levels; also recorded: at the low dose there was no significant difference from vehicle; inguinal fat pad weight ([2]; OVX rats, 12 weeks, any dose, estradiol 0.1, testosterone propionate 1 mg/kg/day s.c.): neither Compound 102 nor ostarine significantly affected inguinal fat pad weight at any dose
N#Cc1ccc(N2CCC[C@@H]2[C@@H](O)C(F)(F)F)cc1C(F)(F)F [Compound 102, R,R-4-(2-(1-Hydroxyl-2,2,2-trifluoroethyl)-pyrrolidinyl)-2-trifluoromethyl-benzonitrile] | 8.7 | 93 | increased uterine weight to length ratio above estrogen deficient OVX controls in a dose dependent manner | significantly (P<0.01) increased above sham levels | increased clitoral gland weight | significantly increased clitoral weight | Neither Compound 102 nor ostarine affected | did not affect clitoral weight | significantly (P<0.01) less than sham operated controls | 17 | +66 grams | significantly less activity versus testosterone | only slightly above the sham level; also recorded: did not quite achieve statistical significance versus sham | increase of skeletal α-actin promoter activity compared to vehicle control ([1]; concentration 1×10^−7 M): about 17.5 fold; more potent in stimulating muscle cells than LG0893410 and LG0893411 ([1]; ratio of EC50): 5-10 fold; increase of uterine weight to length ratio compared with ostarine ([2]; OVX rats, low and mid dose, P<0.01): significantly less than ostarine; uterine weight to length ratio versus sham operated controls ([2]; OVX rats, mid dose (0.3 mg/kg/day PO)): significantly (P<0.01) less than sham operated controls
O=[N+]([O-])c1ccc(N2CCC[C@@H]2[C@@H](O)C(F)(F)F)cc1C(F)(F)F [LG0893410, R,R-2,2,2-trifluoro-1-[1-(4-nitro-3-trifluoromethyl-phenyl)-pyrrolidin-2-yl]-ethanol] | 45.2 | 43 | – | – | – | – | – | – | – | – | – | – | – | –
